Earlier results as cited in patent US20100136095A1, “Systems for modulating inflammation” (Searete LLC, a limited liability corporation of the State …, priority 2008, published 2010).
Blank lines part the entries; values can stand above or below the compound they belong to.

How the values were obtained:
[1] = infused at 400 mg over one hour, single agent
[2] = test system: Src family kinases (Src, Lck, Yes, Fyn); settings: at nanomolar concentrations
proteasome = settings: cultured breast cancer cells; disulfiram bound to copper
lethal septic shock = settings: mice

Compound: CCN(CC)CCCC(C)Nc1ccnc2cc(Cl)ccc12.O=P(O)(O)O.O=P(O)(O)O (centres unmarked) [Chloroquine phosphate, 7-chloro-4-[[4-(diethylamino)-1-methylbutyl]amino]quinoline phosphate (1:2)]
- tolerability of infusion [1]: without complication

- inhibition of CpG-induced Src family kinase activation or its dependent cellular responses (Src family kinase): does not inhibit
Compound: CCN(CC)CCCC(C)Nc1ccnc2cc(Cl)ccc12 (centres unmarked) [Chloroquine]

Compound: Cc1nc(Nc2ncc(C(=O)Nc3c(C)cccc3Cl)s2)cc(N2CCN(CCO)CC2)n1.O [Dasatinib, N-(2-chloro-6-methylphenyl)-2-[[6-[4-(2-hydroxyethyl)-1-piperazinyl]-2-methyl-4-pyrimidinyl]amino]-5-thiazolecarboxamide, monohydrate]
- inhibition of Src family kinases (Src, Lck, Yes, Fyn) [2]: inhibits

Compound: CCN(CC)C(=S)SSC(=S)N(CC)CC [Disulfiram, 1-(diethylthiocarbamoyldisulfanyl)-N,N-diethyl-methanethioamide]
- proteasomal activity (proteasome): inhibits proteasomal activity

Compound: Cl.Cl.Nc1ccccc1Oc1ccc2c(N)nsc2c1 [Example M62812, 3-amino-6-(2-aminophenoxy)-1,2-benzisothiazole dihydrochloride]
- prevention of lethal septic shock (lethal septic shock): prevents lethal septic shock
